Reference: ChEMBL document CHEMBL1150663, “Pachastrissamine, a cytotoxic anhydrophytosphingosine from a marine sponge, Pachastrissa sp” (J Nat Prod, 2002)

Legend:
Type in all cases: functional, cell-based
P388 = test: Cytotoxicity against mouse P388 cells after 3 days; details: P388, 72 h
A549 = test: Cytotoxicity against human A549 cells after 3 days; details: A549, 72 h
HT-29 = test: Cytotoxicity against human HT-29 cells after 3 days; details: HT-29, 72 h
SK-MEL-28 = test: Cytotoxicity against human SK-MEL-28 cells after 3 days; details: SK-MEL-28, 72 h

Measured: IC50

CCCCCCCCCCCCCC[C@@H]1OC[C@H](N)[C@@H]1O [PACHASTRISSAMINE]
0.01 µg/mL: P388 | A549 | HT-29 | SK-MEL-28
